Several values for one entry are separate records, joined by “and”; a condition that tells them apart may be missing. Identical values can stand only once.
Experiments:
[1] = tested on: Ba/F3 cells expressing KIF5B–RET^V804M; assay: Growth inhibition assay in Ba/F3 cells (CellTiter-Glo, 72 h); format: cell-based; settings: replicate sets
[2] = Animal weight of tumor-bearing mice

COCc1ccc(NC(=O)c2c(C#CCN3CCOCC3)n(C3(C)CC3)c3ncnc(N)c23)cc1 [Vepafestinib, 4-amino-N-[4-(methoxymethyl)phenyl]-7-(1-methylcyclopropyl)-6-[3-(morpholin-4-yl)prop-1-yn-1-yl]-7H-pyrrolo[2,3-d]pyrimidine-5-carboxamide]
GI50 ([1]; Ba/3-KIF5B-RET-V804M): 38.7 nM | GI50 ([1]; Mus musculus, BaF3, Ba/3-KIF5B-RET-V804M): 44.8 nM | Animal Weight, Mean ([2]; Ba/F3-KIF5B::RET (Fig 8e), 25 mg/kg BID, day 0): 25.1 g | Animal Weight, Mean ([2]; Ba/F3-KIF5B::RET (Fig 8e), 25 mg/kg BID, day 4): 27.6 g | Animal Weight, Mean ([2]; Ba/F3-KIF5B::RET (Fig 8e), 25 mg/kg BID, day 8): 27.2 g | Animal Weight, Mean ([2]; Ba/F3-KIF5B::RET (Fig 8e), 25 mg/kg BID, day 11): 27.1 g | Animal Weight, Mean ([2]; Ba/F3-KIF5B::RET (Fig 8e), 25 mg/kg BID, day 15): 27.6 g | Animal Weight, Mean ([2]; Ba/F3-KIF5B::RET (Fig 8e), 50 mg/kg BID, day 0): 25.4 g | Animal Weight, Mean ([2]; Ba/F3-KIF5B::RET (Fig 8e), 50 mg/kg BID, day 4): 27.8 g | Animal Weight, Mean ([2]; Ba/F3-KIF5B::RET (Fig 8e), 50 mg/kg BID, day 8): 26.3 g | Animal Weight, Mean ([2]; Ba/F3-KIF5B::RET (Fig 8e), 50 mg/kg BID, day 11): 25.3 g | Animal Weight, Mean ([2]; Ba/F3-KIF5B::RET (Fig 8e), 50 mg/kg BID, day 15): 25.9 g | Animal Weight, Mean ([2]; Ba/F3-KIF5B::RET G810R (Fig 8f), Vepafestinib 10 mg/kg BID, day 1): 25.86 g | Animal Weight, Mean ([2]; Ba/F3-KIF5B::RET G810R (Fig 8f), Vepafestinib 10 mg/kg BID, day 4): 25.30 g | Animal Weight, Mean ([2]; Ba/F3-KIF5B::RET G810R (Fig 8f), Vepafestinib 10 mg/kg BID, day 8): 24.90 g | Animal Weight, Mean ([2]; Ba/F3-KIF5B::RET G810R (Fig 8f), Vepafestinib 10 mg/kg BID, day 11): 25.72 g | Animal Weight, Mean ([2]; Ba/F3-KIF5B::RET G810R (Fig 8f), Vepafestinib 10 mg/kg BID, day 15): 25.22 g | Animal Weight, Mean ([2]; Ba/F3-KIF5B::RET G810R (Fig 8g), Vepafestinib 50 mg/kg BID, day 1): 23.9 g | Animal Weight, Mean ([2]; Ba/F3-KIF5B::RET G810R (Fig 8g), Vepafestinib 50 mg/kg BID, day 4): 24.7 g | Animal Weight, Mean ([2]; Ba/F3-KIF5B::RET G810R (Fig 8g), Vepafestinib 50 mg/kg BID, day 8): 24.9 g | Animal Weight, Mean ([2]; Ba/F3-KIF5B::RET G810R (Fig 8g), Vepafestinib 50 mg/kg BID, day 11): 24.3 g | Animal Weight, Mean ([2]; Ba/F3-KIF5B::RET G810R (Fig 8g), Vepafestinib 50 mg/kg BID, day 15): 24.2 g | Animal Weight (g), Mean ([2]; Ba/F3-KIF5B::RET tumor-bearing mice (Ext. Data Fig 8i), 50 mg/kg BID, day 1): 25.8 g | Animal Weight (g), Mean ([2]; Ba/F3-KIF5B::RET tumor-bearing mice (Ext. Data Fig 8i), 50 mg/kg BID, day 4): 26.2 g | Animal Weight (g), Mean ([2]; Ba/F3-KIF5B::RET tumor-bearing mice (Ext. Data Fig 8i), 50 mg/kg BID, day 8): 26.0 g | Animal Weight (g), Mean ([2]; Ba/F3-KIF5B::RET tumor-bearing mice (Ext. Data Fig 8i), 50 mg/kg BID, day 11): 25.3 g | Animal Weight (g), Mean ([2]; Ba/F3-KIF5B::RET tumor-bearing mice (Ext. Data Fig 8i), 50 mg/kg BID, day 15): 26.9 g | Animal Weight (g), Mean ([2]; Ba/F3-KIF5B::RET tumor-bearing mice (Ext. Data Fig 8h), 50 mg/kg BID, day 1): 28.4 g | Animal Weight (g), Mean ([2]; Ba/F3-KIF5B::RET tumor-bearing mice (Ext. Data Fig 8h), 50 mg/kg BID, day 4): 28.5 g | Animal Weight (g), Mean ([2]; Ba/F3-KIF5B::RET tumor-bearing mice (Ext. Data Fig 8h), 50 mg/kg BID, day 8): 29.3 g | Animal Weight (g), Mean ([2]; Ba/F3-KIF5B::RET tumor-bearing mice (Ext. Data Fig 8h), 50 mg/kg BID, day 11): 29.0 g | Animal Weight (g), Mean ([2]; Ba/F3-KIF5B::RET tumor-bearing mice (Ext. Data Fig 8h), 50 mg/kg BID, day 15): 29.0 g | effect on animal health or animal weight ([2]; ECLC5B xenograft, all dosages, P > 0.05): No dosage of vepafestinib had any adverse effect | Animal Weight ([2]; ECLC5 Xenografts, 25 mg/kg BID, treatment day 7, individual animals, 25 mg/kg): 24 g (2×) and 22 g and 21 g and 27 g | Animal Weight ([2]; ECLC5 Xenografts, 25 mg/kg BID, treatment day 11, individual animals, 25 mg/kg): 24 g and 22 g | Animal Weight ([2]; ECLC5 Xenografts, 50 mg/kg BID, treatment day 7, individual animals, 50 mg/kg): 20 g and 23 g (2×) and 21 g and 22 g | Animal Weight ([2]; ECLC5 Xenografts, 50 mg/kg QD, treatment day 7, individual animals, 50 mg/kg): 22 g (2×) and 21 g and 23 g and 24 g | Animal Weight ([2]; ECLC5 Xenografts, 100 mg/kg QD, treatment day 7, individual animals, 100 mg/kg): 22 g (3×) and 24 g and 25 g | Animal Weight (g), Mean ([2]; LC-2/ad xenograft mice, 25 mg/kg BID, day 0): 25.9 g | Animal Weight (g), Mean ([2]; LC-2/ad xenograft mice, 25 mg/kg BID, day 4): 25.1 g | Animal Weight (g), Mean ([2]; LC-2/ad xenograft mice, 25 mg/kg BID, day 8): 24.6 g | Animal Weight (g), Mean ([2]; LC-2/ad xenograft mice, 25 mg/kg BID, day 11): 24.4 g | Animal Weight (g), Mean ([2]; LC-2/ad xenograft mice, 25 mg/kg BID, day 15): 23.5 g | Animal Weight (g), Mean ([2]; LC-2/ad xenograft mice, 50 mg/kg BID, day 0): 25.1 g | Animal Weight (g), Mean ([2]; LC-2/ad xenograft mice, 50 mg/kg BID, day 4): 25.3 g | Animal Weight (g), Mean ([2]; LC-2/ad xenograft mice, 50 mg/kg BID, day 8): 24.2 g | Animal Weight (g), Mean ([2]; LC-2/ad xenograft mice, 50 mg/kg BID, day 11): 24.4 g | Animal Weight (g), Mean ([2]; LC-2/ad xenograft mice, 50 mg/kg BID, day 15): 23.5 g | Animal Weight (g), Mean ([2]; LC-2/ad xenograft mice, 50 mg/kg QD, day 0): 25.0 g | Animal Weight (g), Mean ([2]; LC-2/ad xenograft mice, 50 mg/kg QD, day 4): 24.8 g | Animal Weight (g), Mean ([2]; LC-2/ad xenograft mice, 50 mg/kg QD, day 8): 24.7 g | Animal Weight (g), Mean ([2]; LC-2/ad xenograft mice, 50 mg/kg QD, day 11): 25.0 g | Animal Weight (g), Mean ([2]; LC-2/ad xenograft mice, 50 mg/kg QD, day 15): 24.3 g | Animal Weight ([2]; NIH-3T3-CCDC6::RET xenografts, 25 mg/kg BID, day 0, 25 mg/kg): 22 g and 21 g and 24 g | Animal Weight ([2]; NIH-3T3-CCDC6::RET xenografts, 25 mg/kg BID, day 2, 25 mg/kg): 23 g and 21 g and 22 g | Animal Weight ([2]; NIH-3T3-CCDC6::RET xenografts, 25 mg/kg BID, day 5, 25 mg/kg): 23 g and 22 g and 24 g | Animal Weight ([2]; NIH-3T3-CCDC6::RET xenografts, 25 mg/kg BID, day 8, 25 mg/kg): 23 g and 22 g | Animal Weight ([2]; NIH-3T3-CCDC6::RET xenografts, 25 mg/kg QD, day 0, 25 mg/kg): 24 g and 22 g and 23 g and 21 g | Animal Weight ([2]; NIH-3T3-CCDC6::RET xenografts, 25 mg/kg QD, day 2, 25 mg/kg): 25 g and 24 g and 22 g | Animal Weight ([2]; NIH-3T3-CCDC6::RET xenografts, 25 mg/kg QD, day 5, 25 mg/kg): 22 g and 23 g and 24 g | Animal Weight ([2]; NIH-3T3-CCDC6::RET xenografts, 25 mg/kg QD, day 8, 25 mg/kg): 25 g and 23 g and 24 g | Animal Weight ([2]; NIH-3T3-CCDC6::RET xenografts, 50 mg/kg BID, day 0, 50 mg/kg): 22 g and 19 g and 21 g | Animal Weight ([2]; NIH-3T3-CCDC6::RET xenografts, 50 mg/kg BID, day 2, 50 mg/kg): 20 g and 24 g and 23 g and 21 g and 22 g | Animal Weight ([2]; NIH-3T3-CCDC6::RET xenografts, 50 mg/kg BID, day 5, 50 mg/kg): 21 g and 24 g and 23 g and 20 g | Animal Weight ([2]; NIH-3T3-CCDC6::RET xenografts, 50 mg/kg BID, day 8, 50 mg/kg): 21 g and 23 g and 24 g | Animal Weight ([2]; NIH-3T3-CCDC6::RET xenografts, 50 mg/kg QD, day 0, 50 mg/kg): 22 g and 21 g | Animal Weight ([2]; NIH-3T3-CCDC6::RET xenografts, 50 mg/kg QD, day 2, 50 mg/kg): 24 g and 23 g | Animal Weight ([2]; NIH-3T3-CCDC6::RET xenografts, 50 mg/kg QD, day 5, 50 mg/kg): 23 g and 24 g | Animal Weight ([2]; NIH-3T3-CCDC6::RET xenografts, 50 mg/kg QD, day 8, 50 mg/kg): 24 g and 25 g | Animal Weight ([2]; NIH-3T3-CCDC6::RET xenografts, 100 mg/kg QD, day 0, 100 mg/kg): 22 g and 21 g and 20 g and 19 g
